Laboratory results taken from PubChem BioAssay AID2060617 (Molecular Pharmacology Branch, DTP, NCI, 2025).
Values joined by “and” are separate entries in the source; they are usually repeats but may differ in a detail not shown here. Equal entries are not always repeated.

Test system: 485368-065-R4-J2-PDC spheroids with HUVEC/MSC, viability
Assay: Anticancer human tumor 485368-065-R4-J2-PDC patient-derived pancreatic carcinoma cell line growth inhibition [CLK]
Details: for viability, T/C: stronger effect = lower value
Method in brief: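 Multi-cell-type spheroids combined patient-derived tumor cells with HUVEC endothelial cells and human mesenchymal stem cells. Paired agents were dosed in half-log steps down from about clinical Cmax, or from 10 microM where Cmax was unknown.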

[1] = curve of first compound, second compound 0.0316 µM
[2] = curve of first compound, second compound 0.1 µM
[3] = curve of first compound, second compound 0.316 µM
[4] = curve of first compound, second compound 1 µM
[5] = curve of first compound, second compound 3.16 µM
[6] = curve of first compound, second compound 10 µM
[7] = second compound 0.0316 µM, first compound 0.0316 µM
[8] = second compound 0.0316 µM, first compound 0.1 µM
[9] = second compound 0.0316 µM, first compound 0.316 µM
[10] = second compound 0.0316 µM, first compound 1 µM
[11] = second compound 0.0316 µM, first compound 3.16 µM
[12] = second compound 0.0316 µM, first compound 10 µM
[13] = second compound 0.1 µM, first compound 0.0316 µM
[14] = second compound 0.1 µM, first compound 0.1 µM
[15] = second compound 0.1 µM, first compound 0.316 µM
[16] = second compound 0.1 µM, first compound 1 µM
[17] = second compound 0.1 µM, first compound 3.16 µM
[18] = second compound 0.1 µM, first compound 10 µM
[19] = second compound 0.316 µM, first compound 0.0316 µM
[20] = second compound 0.316 µM, first compound 0.1 µM
[21] = second compound 0.316 µM, first compound 0.316 µM
[22] = second compound 0.316 µM, first compound 1 µM
[23] = second compound 0.316 µM, first compound 3.16 µM
[24] = second compound 0.316 µM, first compound 10 µM
[25] = second compound 1 µM, first compound 0.0316 µM
[26] = second compound 1 µM, first compound 0.1 µM
[27] = second compound 1 µM, first compound 0.316 µM
[28] = second compound 1 µM, first compound 1 µM
[29] = second compound 1 µM, first compound 3.16 µM
[30] = second compound 1 µM, first compound 10 µM
[31] = second compound 3.16 µM, first compound 0.0316 µM
[32] = second compound 3.16 µM, first compound 0.1 µM
[33] = second compound 3.16 µM, first compound 0.316 µM
[34] = second compound 3.16 µM, first compound 1 µM
[35] = second compound 3.16 µM, first compound 3.16 µM
[36] = second compound 3.16 µM, first compound 10 µM
[37] = second compound 10 µM, first compound 0.0316 µM
[38] = second compound 10 µM, first compound 0.1 µM
[39] = second compound 10 µM, first compound 0.316 µM
[40] = second compound 10 µM, first compound 1 µM
[41] = second compound 10 µM, first compound 3.16 µM
[42] = second compound 10 µM, first compound 10 µM
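Note: spheroids exposed to compounds for seven days.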
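Throughout, for viability, T/C: 100% = DMSO vehicle control wells.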

COc1ccc([C@@H](O)c2cc(-c3ncnc4cc(N5CCOCC5)ccc34)c(F)cc2Cl)nn1 + CN1CCN(c2cc(C(=O)Nc3cc4cc(-c5cnn(C)c5)ccc4cn3)ccn2)CC1
IC50 [1]: > 10 µM
IC50 [2]: > 10 µM
IC50 [3]: 8.18 µM
IC50 [4]: < 0.0316 µM
IC50 [5]: < 0.0316 µM
IC50 [6]: < 0.0316 µM
viability, T/C [7]: 106%
viability, T/C [8]: 109%
viability, T/C [9]: 111%
viability, T/C [10]: 119%
viability, T/C [11]: 109%
viability, T/C [12]: 82%
viability, T/C [13]: 114%
viability, T/C [14]: 113%
viability, T/C [15]: 113%
viability, T/C [16]: 115%
viability, T/C [17]: 100%
viability, T/C [18]: 74.6%
viability, T/C [19]: 79%
viability, T/C [20]: 81.2%
viability, T/C [21]: 69.7%
viability, T/C [22]: 65%
viability, T/C [23]: 61.3%
viability, T/C [24]: 47.2%
viability, T/C [25]: 0.59%
viability, T/C [26]: 0.61%
viability, T/C [27]: 0.67%
viability, T/C [28]: 0.97%
viability, T/C [29]: 0.95%
viability, T/C [30]: 1.67%
viability, T/C [31]: 1.12%
viability, T/C [32]: 1.03%
viability, T/C [33]: 0.98%
viability, T/C [34]: 1.02%
viability, T/C [35]: 1.01%
viability, T/C [36]: 1.54%
viability, T/C [37]: 1.19%
viability, T/C [38]: 1.26%
viability, T/C [39]: 1.23%
viability, T/C [40]: 1.29%
viability, T/C [41]: 2.19%
viability, T/C [42]: 3.09%

CCCS(=O)(=O)Nc1ccc(F)c(C(=O)c2c[nH]c3ncc(-c4ccc(Cl)cc4)cc23)c1F + CNC(=O)c1ccc(Nc2nc(OC3CCCC3)c3c(-c4ccc5nc(C)oc5c4)c[nH]c3n2)c(OC)c1
IC50 [1]: > 10 µM
IC50 [2]: > 10 µM
IC50 [3]: > 10 µM
IC50 [4]: > 10 µM
IC50 [5]: > 10 µM
IC50 [6]: > 10 µM
viability, T/C [7]: 92.6%
viability, T/C [8]: 95.1%
viability, T/C [9]: 93.2%
viability, T/C [10]: 97.5%
viability, T/C [11]: 91.6%
viability, T/C [12]: 114%
viability, T/C [13]: 100%
viability, T/C [14]: 99.5%
viability, T/C [15]: 95.9%
viability, T/C [16]: 90.1%
viability, T/C [17]: 98.3%
viability, T/C [18]: 112%
viability, T/C [19]: 90%
viability, T/C [20]: 84.8%
viability, T/C [21]: 87.9%
viability, T/C [22]: 85.4%
viability, T/C [23]: 95.9%
viability, T/C [24]: 104%
viability, T/C [25]: 83.5%
viability, T/C [26]: 80.7%
viability, T/C [27]: 85.7%
viability, T/C [28]: 78.9%
viability, T/C [29]: 89.7%
viability, T/C [30]: 105%
viability, T/C [31]: 70.7%
viability, T/C [32]: 75.5%
viability, T/C [33]: 85.4%
viability, T/C [34]: 78.9%
viability, T/C [35]: 95.2%
viability, T/C [36]: 99.5%
viability, T/C [37]: 75.7%
viability, T/C [38]: 73.6%
viability, T/C [39]: 86.7%
viability, T/C [40]: 78.9%
viability, T/C [41]: 90.1%
viability, T/C [42]: 93.4%

CC(CO)NC(=O)c1cc(-c2ccc(Cl)cc2)nn(-c2cnn(C)c2)c1=O (stereo not given) + CN1CCN(c2cc(C(=O)Nc3cc4cc(-c5cnn(C)c5)ccc4cn3)ccn2)CC1
IC50 [1]: > 10 µM
IC50 [2]: > 10 µM
IC50 [3]: > 10 µM
IC50 [4]: < 0.0316 µM
IC50 [5]: < 0.0316 µM
IC50 [6]: < 0.0316 µM
viability, T/C [7]: 91.7%
viability, T/C [8]: 106%
viability, T/C [9]: 99.8%
viability, T/C [10]: 105%
viability, T/C [11]: 104%
viability, T/C [12]: 101%
viability, T/C [13]: 114%
viability, T/C [14]: 116%
viability, T/C [15]: 108%
viability, T/C [16]: 116%
viability, T/C [17]: 105%
viability, T/C [18]: 99.3%
viability, T/C [19]: 87.2%
viability, T/C [20]: 87.9%
viability, T/C [21]: 91%
viability, T/C [22]: 82.5%
viability, T/C [23]: 78.1%
viability, T/C [24]: 79.1%
viability, T/C [25]: 1.07%
viability, T/C [26]: 2.15%
viability, T/C [27]: 1.7%
viability, T/C [28]: 1.69%
viability, T/C [29]: 1.72%
viability, T/C [30]: 2.66%
viability, T/C [31]: 2.09%
viability, T/C [32]: 1.46%
viability, T/C [33]: 1.34%
viability, T/C [34]: 1.32%
viability, T/C [35]: 1.45%
viability, T/C [36]: 3.08%
viability, T/C [37]: 1.44%
viability, T/C [38]: 4.18%
viability, T/C [39]: 1.35%
viability, T/C [40]: 1.26%
viability, T/C [41]: 2.31%
viability, T/C [42]: 1.01%

CC(CO)NC(=O)c1cc(-c2ccc(Cl)cc2)nn(-c2cnn(C)c2)c1=O (stereo not given)
viability, T/C (compound 0.0316 µM): 86.9% and 92.3%
viability, T/C (compound 0.1 µM): 92.6% and 87.3%
viability, T/C (compound 0.316 µM): 97.4% and 89.7%
viability, T/C (compound 1 µM): 100% and 101%
viability, T/C (compound 3.16 µM): 107% and 110%
viability, T/C (compound 10 µM): 105% and 104%
IC50 (curve of compound): > 10 µM

COC1C=CCC(C)C(C)S(=O)(=O)NC(=O)c2ccc3c(c2)N(CC2CCC21)CC1(CCCc2cc(Cl)ccc21)CO3 (stereo not given)
viability, T/C (compound 0.0316 µM): 92.5% and 105%
viability, T/C (compound 0.1 µM): 109% and 93.5%
viability, T/C (compound 0.316 µM): 101% and 105%
viability, T/C (compound 1 µM): 132% and 123%
viability, T/C (compound 3.16 µM): 105%
viability, T/C (compound 10 µM): 86.1% and 74.7%
IC50 (curve of compound): > 10 µM
